Measured values reported in the supplement of paper PMC11451515.

System: P12-Ichikawa
Experiment: cell viability relative to DMSO control; higher = less cytotoxic
Details: 48 h
Outline: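 Cells were incubated for 48 h at 37°C before CellTiter-Glo One luminescence was read. The cells were NOMO1 or SEM (500 cells/well) or P12-Ichikawa (1000 cells/well) leukemia cells, adapted for at least four passages in each medium and seeded in 1536-well plates (5 μl). Dosing used library compounds in DMSO applied by pin over 11 threefold points, 47 μM to 0.79 nM. Viability is the per-plate percentage of DMSO wells, with cell-free wells as background.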

[1] = HPLM + 10% dialyzed FBS, 0.000781 µM
[2] = HPLM + 10% dialyzed FBS, 0.00234 µM
[3] = HPLM + 10% dialyzed FBS, 0.00702 µM
[4] = HPLM + 10% dialyzed FBS, 0.0211 µM
[5] = HPLM + 10% dialyzed FBS, 0.0632 µM
[6] = HPLM + 10% dialyzed FBS, 0.19 µM
[7] = HPLM + 10% dialyzed FBS, 0.569 µM
[8] = HPLM + 10% dialyzed FBS, 1.71 µM
[9] = HPLM + 10% dialyzed FBS, 5.12 µM
[10] = HPLM + 10% dialyzed FBS, 15.4 µM
[11] = HPLM + 10% dialyzed FBS, 46.1 µM
[12] = RPMI 5 mM glucose + 10% FBS, 0.000781 µM
[13] = RPMI 5 mM glucose + 10% FBS, 0.00234 µM
[14] = RPMI 5 mM glucose + 10% FBS, 0.00702 µM
[15] = RPMI 5 mM glucose + 10% FBS, 0.0211 µM
[16] = RPMI 5 mM glucose + 10% FBS, 0.0632 µM
[17] = RPMI 5 mM glucose + 10% FBS, 0.19 µM
[18] = RPMI 5 mM glucose + 10% FBS, 0.569 µM
[19] = RPMI 5 mM glucose + 10% FBS, 1.71 µM
[20] = RPMI 5 mM glucose + 10% FBS, 5.12 µM
[21] = RPMI 5 mM glucose + 10% FBS, 15.4 µM
[22] = RPMI 5 mM glucose + 10% FBS, 46.1 µM
[23] = RPMI 5 mM glucose + 10% dialyzed FBS, 0.000781 µM
[24] = RPMI 5 mM glucose + 10% dialyzed FBS, 0.00234 µM
[25] = RPMI 5 mM glucose + 10% dialyzed FBS, 0.00702 µM
[26] = RPMI 5 mM glucose + 10% dialyzed FBS, 0.0211 µM
[27] = RPMI 5 mM glucose + 10% dialyzed FBS, 0.0632 µM
[28] = RPMI 5 mM glucose + 10% dialyzed FBS, 0.19 µM
[29] = RPMI 5 mM glucose + 10% dialyzed FBS, 0.569 µM
[30] = RPMI 5 mM glucose + 10% dialyzed FBS, 1.71 µM
[31] = RPMI 5 mM glucose + 10% dialyzed FBS, 5.12 µM
[32] = RPMI 5 mM glucose + 10% dialyzed FBS, 15.4 µM
[33] = RPMI 5 mM glucose + 10% dialyzed FBS, 46.1 µM

| Compound | cell viability [1] [%] | cell viability [2] [%] | cell viability [3] [%] | cell viability [4] [%] | cell viability [5] [%] | cell viability [6] [%] | cell viability [7] [%] | cell viability [8] [%] | cell viability [9] [%] | cell viability [10] [%] | cell viability [11] [%] | cell viability [12] [%] | cell viability [13] [%] | cell viability [14] [%] | cell viability [15] [%] | cell viability [16] [%] | cell viability [17] [%] | cell viability [18] [%] | cell viability [19] [%] | cell viability [20] [%] | cell viability [21] [%] | cell viability [22] [%] | cell viability [23] [%] | cell viability [24] [%] | cell viability [25] [%] | cell viability [26] [%] | cell viability [27] [%] | cell viability [28] [%] | cell viability [29] [%] | cell viability [30] [%] | cell viability [31] [%] | cell viability [32] [%] | cell viability [33] [%] |
| --- | --- | --- | --- | --- | --- | --- | --- | --- | --- | --- | --- | --- | --- | --- | --- | --- | --- | --- | --- | --- | --- | --- | --- | --- | --- | --- | --- | --- | --- | --- | --- | --- | --- |
| CCCc1nc(C(C)(C)O)c(C(=O)O)n1Cc1ccc(-c2ccccc2-c2nn[nH]n2)cc1 | 111 | 115 | 112 | 117 | 115 | 125 | 120 | 119 | 122 | 125 | 128 | 109 | 114 | 102 | 110 | 116 | 130 | 124 | 123 | 126 | 138 | 109 | 103 | 70.5 | 107 | 107 | 117 | 118 | 116 | 117 | 118 | 128 | 135 |
| CC(NC1=CC=CC=C1)C\2=C\C(=C/N3C(=O)\C=C(/N=C23)N4CCOCC4)C (stereo unspecified) | 101 | 100 | 107 | 110 | 109 | 110 | 115 | 115 | 110 | 106 | 101 | 95.9 | 98 | 97.4 | 98.1 | 102 | 110 | 115 | 113 | 101 | 112 | 102 | 88.6 | 93.6 | 114 | 110 | 99.1 | 115 | 110 | 116 | 105 | 106 | 111 |
| COC1=CC2=NC=CC(=C2C=C1)OC3=CN=C(NC(=O)C/4=C(C)/N(CC(C)(C)O)N(C4=O)C5=CC=CC=C5)C=C3 | 87.7 | 92.6 | 87.6 | 91.3 | 97.1 | 96.4 | 95 | 91.6 | 76.9 | 85.7 | 74.4 | 89.4 | 87.9 | 89.7 | 92.1 | 92.1 | 91.9 | 89.5 | 90.5 | 70.1 | 90 | 63.6 | 81.1 | 88.7 | 89.8 | 98.5 | 96.6 | 93.2 | 94.9 | 91.4 | 78.8 | 81.9 | 61.2 |
| CC(=O)Oc1ccccc1C(=O)O | 99.8 | 96.4 | 102 | 93.9 | 101 | 101 | 96.6 | 95.5 | 90.3 | 96.4 | 101 | 106 | 101 | 104 | 98.6 | 101 | 86.5 | 87.3 | 105 | 95.9 | 96.4 | 99.3 | 97.2 | 97.5 | 98.7 | 105 | 101 | 93.6 | 89.2 | 99.6 | 93.2 | 104 | 103 |
| CC[C@H](CC#N)OC(=O)N[C@@H](C)c1cccc(NC(=O)Nc2ccc(-c3cnco3)c(OC)c2)c1 | 117 | 112 | 120 |  | 111 | 107 | 106 | 74.9 | 49.8 | 49.1 | 40.6 | 119 | 121 | 118 | 117 | 132 | 113 | 97.2 | 65.9 | 44.3 | 33.4 | 30.4 | 112 | 120 | 111 | 120 | 121 | 110 | 90.4 | 59.1 | 42.3 | 40.2 | 40.6 |
| CN1[C@@H]2CC(OC(=O)[C@@H](CO)c3ccccc3)C[C@H]1[C@H]1O[C@H]12 (stereo partly specified) | 97 | 94.9 | 103 | 103 | 101 | 101 | 101 | 103 | 98.7 | 92.9 | 102 | 98.8 | 100 | 102 | 106 | 107 | 105 | 106 | 110 | 98.8 | 104 | 104 | 94.3 | 97.1 | 93.1 | 95.2 | 99.2 | 96.3 | 93.3 | 95 | 101 | 89.5 | 105 |
| FC(F)(F)c1ccc(/C=C/c2nc(COc3ccc(CCCCn4ccnn4)cc3)co2)cc1 | 119 | 124 | 110 | 97.3 | 88 | 86.9 | 83.4 | 85.6 | 40.4 | 35.6 | 81.6 |  |  |  |  |  |  |  |  |  |  |  |  |  |  |  |  |  |  |  |  |  |  |
| CC1=CC=CC=C1N2\C(=N/C3=C(C(=CC=C3)C)C2=O)C[N]4C=NC5=C4N=CN=C5N | 115 | 124 | 122 | 85 | 120 | 118 | 108 | 106 | 79.5 | 78.2 | 82.2 | 113 | 116 | 107 | 79.6 | 109 | 98.1 | 97.6 | 81.2 | 62.8 | 60.5 | 57.9 | 107 | 123 | 116 | 81.7 | 128 | 112 | 108 | 95.6 | 70.2 | 56 | 63.9 |
